Source: paper PMC8347092, “Betulin, a Newly Characterized Compound in Acacia auriculiformis Bark, Is a Multi-Target Protein Kinase Inhibitor” (Molecules, 2021)

Tests used:
[1] = tested on: human peripheral blood lymphocytes (hPBLs); assay: MTS cell viability assay, human peripheral blood lymphocytes; format: cell-based; details: betulin ≤ 100 µM, 48 h, four healthy donors
Method: Peripheral blood mononuclear cells (PBMCs) were isolated by Ficoll gradient centrifugation from blood buffy coats of healthy donors, provided by the Etablissement Français du Sang (EFS). The research protocol was conducted under French legal guidelines. After separation of monocytes by 1 h adhesion step, non-adherent PBMCs (peripheral blood lymphocytes, PBL) were harvested. PBL were cultured in RPMI 1640 medium (Gibco, Life technologies, Carlsbad, CA, USA) supplemented with 10% decomplemented fetal bovine serum (CVFSVF00–01, Eurobio), penicillin (100 IU/mL), and streptomycin (100 μg/mL) (15140–122, Gibco). All cells were cultured at 37 °C with 5% CO2.
Cell viability was evaluated with the MTS (3-(4,5-dimethylthiazol-2-yl)-5-(3-carboxymethoxyphenyl)-2-(4-sulfophenyl)-2H-tetrazolium) reduction kit, (CellTiter 96 Aqueous Non-Radioactive Cell Proliferation Assay, Promega, Fitchburg, WI, USA), according to the instructions of the manufacturer. […] Further details on experimental conditions used can be found in Delehouzé et al. 2017 [47].

[2] = molecular target: CDK5/p25 (Homo sapiens, UniProt Q00535); assay: ADP-Glo protein kinase assay, CDK5/p25; format: biochemical; details: 10 µM ATP, normalized to DMSO control, mean n = 2
Sequence of CDK5/p25 (Q00535 whole entry): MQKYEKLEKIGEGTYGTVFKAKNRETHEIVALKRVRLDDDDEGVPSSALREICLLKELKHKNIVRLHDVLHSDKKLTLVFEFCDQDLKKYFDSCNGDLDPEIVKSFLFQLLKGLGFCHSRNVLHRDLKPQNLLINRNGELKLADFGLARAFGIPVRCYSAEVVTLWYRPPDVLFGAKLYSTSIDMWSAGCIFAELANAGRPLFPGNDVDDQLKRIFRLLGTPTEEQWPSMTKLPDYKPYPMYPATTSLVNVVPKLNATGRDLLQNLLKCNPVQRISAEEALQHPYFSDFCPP
Sequence of CDK5/p25 (Q15078 99-307 partner limits assumed): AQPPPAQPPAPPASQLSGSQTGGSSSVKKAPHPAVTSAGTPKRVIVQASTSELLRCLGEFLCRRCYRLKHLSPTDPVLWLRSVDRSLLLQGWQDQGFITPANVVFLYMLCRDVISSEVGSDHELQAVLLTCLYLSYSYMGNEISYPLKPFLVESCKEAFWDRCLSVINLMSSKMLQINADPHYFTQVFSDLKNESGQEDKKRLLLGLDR
Method: (§1) Kinase enzymatic activities were assayed in 384-well plates using the ADP-Glo^TM assay kit, following the recommendations of the manufacturer (Promega, Madison, WI). Controls were performed in appropriate dilutions of dimethyl sulfoxide (DMSO). Kinase activities, measured in the presence of 10 µM ATP, are expressed as percentage of maximal activity, i.e., measured in the absence of inhibitor. In order to determine the half-maximal inhibitory concentration (IC50), the assays were performed in duplicate in the absence or presence of increasing doses of the tested compounds. Data were analyzed using GraphPad PRISM (GraphPad Software, San Diego, CA, USA) software to fit a sigmoïdal curve that allowed determination of the IC50 values. The experimental conditions used for measuring kinase activities are comprehensively described in Ibrahim et al.. Human recombinant ABL1 mutant (T315I) was purchased from Promega (Catalog # V5320) and tested following the recommendations of the manufacturer (Promega, Madison, WI, USA).

[3] = molecular target: GSK-3α (Homo sapiens, UniProt P49840); assay: ADP-Glo protein kinase assay, GSK-3α; format: biochemical
Sequence of GSK-3α (P49840 whole entry): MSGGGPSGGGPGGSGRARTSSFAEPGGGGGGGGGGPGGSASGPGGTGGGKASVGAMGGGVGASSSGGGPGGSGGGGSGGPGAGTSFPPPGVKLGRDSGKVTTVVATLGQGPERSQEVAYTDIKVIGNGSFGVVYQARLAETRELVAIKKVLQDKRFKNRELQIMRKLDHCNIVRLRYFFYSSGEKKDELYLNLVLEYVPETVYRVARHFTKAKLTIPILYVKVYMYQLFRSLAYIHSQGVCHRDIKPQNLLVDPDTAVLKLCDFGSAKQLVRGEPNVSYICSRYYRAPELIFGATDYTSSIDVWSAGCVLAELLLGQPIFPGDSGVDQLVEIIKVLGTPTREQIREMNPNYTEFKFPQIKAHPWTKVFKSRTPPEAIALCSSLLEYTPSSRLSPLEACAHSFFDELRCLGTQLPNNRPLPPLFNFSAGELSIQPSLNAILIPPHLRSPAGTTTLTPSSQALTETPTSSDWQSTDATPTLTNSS
Method: as §1

[4] = tested on: phospho-ERK1/2 (Thr202/Tyr204); assay: Immunoblot of phospho-ERK1/2 in K562S cells; format: cell-based, human; details: 6 h treatment, ImageJ band quantification
Method: The concentration of DMSO in the culture medium was 1%. Cell lysates were prepared by sonication of the cells in homogenization buffer with 0.5% of nonidet P-40 non-ionic detergent (NP-40) as described previously. SDS-PAGE and immunoblotting were performed following standard procedures. Anti-α-tubulin antibody (clone B512, T5168, 1:5000) was purchased from Sigma Aldrich (St. Louis, MO, USA). The anti-phospho-p44/42 MAPK (#28733–1-AP, 1:2000) was purchased from Proteintech® (Rosemont, IL, USA). This rabbit polyclonal antibody detects p44 and p42 MAPK when doubly phosphorylated (at Thr202 and Tyr204 of p44 and at Thr185 and Tyr187 of p42 MAPK).

[5] = ref ChemSpider database, Royal Society of Chemistry; cited from earlier work
[6] = molecular target: ABL1 mutant (T315I) (Homo sapiens, UniProt P00519, T315I); details: inhibitor at 1 µM; 10 µM ATP; compared with wild type ABL1
Method: Effect of the T315I ABL1 kinase domain mutation on the inhibition by betulin. We selected 1 µM
We measured inhibition of mutant and WT ABL1 kinase activities by betulin and by
imatinib, using the ADP-Glo luminescent assay. ATP concentration used in the kinase assays was 10 µM.
Data are mean (N=3, n=3) ± SEM expressed as % of residual kinase activity, normalized to the DMSO control.

[7] = molecular target: NEK6 (Homo sapiens, UniProt Q9HC98); assay: ADP-Glo protein kinase assay, NEK6; format: biochemical
Sequence of NEK6 (Q9HC98 whole entry): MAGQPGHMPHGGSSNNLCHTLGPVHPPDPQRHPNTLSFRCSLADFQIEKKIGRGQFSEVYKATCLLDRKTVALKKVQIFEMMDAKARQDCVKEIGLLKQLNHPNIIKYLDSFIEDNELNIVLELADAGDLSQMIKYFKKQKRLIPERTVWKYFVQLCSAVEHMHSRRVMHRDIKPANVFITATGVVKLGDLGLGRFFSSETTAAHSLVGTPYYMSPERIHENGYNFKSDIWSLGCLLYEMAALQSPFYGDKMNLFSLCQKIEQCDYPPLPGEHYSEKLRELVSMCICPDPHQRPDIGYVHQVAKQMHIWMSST
Method: as §1

[8] = molecular target: CDK9/CyclinT (Homo sapiens, UniProt P50750); assay: ADP-Glo protein kinase assay, CDK9/CyclinT; format: biochemical; details: 10 µM ATP, normalized to DMSO control, mean n = 2
Sequence of CDK9/CyclinT (P50750 whole entry): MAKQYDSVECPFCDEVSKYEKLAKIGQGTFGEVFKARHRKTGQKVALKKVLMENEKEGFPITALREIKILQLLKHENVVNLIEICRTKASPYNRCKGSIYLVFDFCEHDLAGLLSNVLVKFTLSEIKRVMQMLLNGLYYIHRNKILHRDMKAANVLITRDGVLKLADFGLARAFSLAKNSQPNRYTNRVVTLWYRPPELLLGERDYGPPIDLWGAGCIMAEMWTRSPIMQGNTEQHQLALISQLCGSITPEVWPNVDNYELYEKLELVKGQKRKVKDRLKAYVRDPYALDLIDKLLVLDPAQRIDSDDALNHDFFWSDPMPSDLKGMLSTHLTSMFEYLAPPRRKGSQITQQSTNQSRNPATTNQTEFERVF
Sequence of CDK9/CyclinT (O60563 whole entry partner): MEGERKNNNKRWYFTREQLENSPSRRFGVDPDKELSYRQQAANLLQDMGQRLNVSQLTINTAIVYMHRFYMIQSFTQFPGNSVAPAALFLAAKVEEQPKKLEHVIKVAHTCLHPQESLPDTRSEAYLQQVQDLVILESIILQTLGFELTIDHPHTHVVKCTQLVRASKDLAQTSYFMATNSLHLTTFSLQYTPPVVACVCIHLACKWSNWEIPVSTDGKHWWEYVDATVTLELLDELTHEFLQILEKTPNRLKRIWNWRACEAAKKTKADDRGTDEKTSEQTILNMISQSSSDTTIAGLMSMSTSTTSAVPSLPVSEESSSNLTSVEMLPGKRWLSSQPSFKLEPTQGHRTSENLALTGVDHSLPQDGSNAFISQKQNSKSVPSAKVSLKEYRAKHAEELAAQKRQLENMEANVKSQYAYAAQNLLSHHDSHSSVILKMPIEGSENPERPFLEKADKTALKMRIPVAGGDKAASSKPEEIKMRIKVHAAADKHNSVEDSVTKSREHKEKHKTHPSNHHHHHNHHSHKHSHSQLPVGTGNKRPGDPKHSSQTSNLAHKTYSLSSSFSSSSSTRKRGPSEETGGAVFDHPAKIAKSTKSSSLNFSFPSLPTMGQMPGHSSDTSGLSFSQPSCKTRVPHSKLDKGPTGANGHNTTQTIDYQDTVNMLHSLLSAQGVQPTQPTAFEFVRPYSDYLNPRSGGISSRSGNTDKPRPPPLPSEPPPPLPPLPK
Method: as §1

[9] = molecular target: CK1ε (Homo sapiens, UniProt P49674); assay: ADP-Glo protein kinase assay, CK1ε; format: biochemical; details: for % of kinase activity that remained, CK1ε: 10 µM ATP, normalized to DMSO control, mean n = 2
Sequence of CK1ε (P49674 whole entry): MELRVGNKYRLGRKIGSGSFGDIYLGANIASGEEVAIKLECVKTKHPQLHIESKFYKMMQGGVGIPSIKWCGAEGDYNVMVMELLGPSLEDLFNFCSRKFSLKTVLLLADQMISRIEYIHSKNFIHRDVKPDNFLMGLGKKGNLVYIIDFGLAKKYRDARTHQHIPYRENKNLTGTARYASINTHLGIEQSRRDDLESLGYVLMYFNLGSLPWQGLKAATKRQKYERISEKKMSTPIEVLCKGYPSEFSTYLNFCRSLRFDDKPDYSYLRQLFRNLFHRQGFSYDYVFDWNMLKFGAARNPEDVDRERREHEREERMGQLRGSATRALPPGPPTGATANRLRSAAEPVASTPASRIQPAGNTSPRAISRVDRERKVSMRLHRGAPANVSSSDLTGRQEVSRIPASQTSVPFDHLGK
Method: as §1

[10] = molecular target: ABL1 (Homo sapiens, UniProt P00519); assay: ADP-Glo protein kinase assay, ABL1; format: biochemical; details: for % of kinase activity that remained, ABL1: 10 µM ATP, normalized to DMSO control, mean n = 2
Method: as §1, with “Kinase activities, measured in the presence of 10 µM ATP, are expressed as percentage of maximal activity, i.e., measured in the absence of inhibitor.” left out

[11] = betulin purified from Acacia auriculiformis at 1 µg/mL
[12] = betulin purified from Acacia auriculiformis at 10 µg/mL

With `C=C(C)[C@@H]1CC[C@]2(CO)CC[C@]3(C)[C@H](CC[C@@H]4[C@@]5(C)CC[C@H](O)C(C)(C)[C@@H]5CC[C@]43C)[C@@H]12` [Betulin, 3-lup-20(29)-ene-3β,28-diol] the “viability of hPBLs” value [1] was “did not induce a significant decrease”, the “% of kinase activity that remained, CDK5/p25” value [2, 11] was 94% and the “% of kinase activity that remained, CDK5/p25” value [2, 12] was 99%. For the same compound, the IC50 [3] was 0.72 µM, the “%pERK/Tubulin” value ([4]; 50 µM) was 71.3% and the “%pERK/Tubulin” value ([4]; 100 µM) was 48.3%. For the same compound, the “predicted Octanol-Water Partition Coefficient (LogP)” value [5] was 9.01, the “inhibition of the enzymatic activity of T315I mutant of ABL1” value [6] was “retains its capacity to inhibit” and the IC50 [7] was 3.02 µM. The “% of kinase activity that remained, CDK9/CyclinT” value [8, 11] was 88%, the “% of kinase activity that remained, CDK9/CyclinT” value [8, 12] was 60% and the IC50 [9] was 2.11 µM. The “% of kinase activity that remained, CK1ε” value [9, 11] was 53%, the “% of kinase activity that remained, CK1ε” value [9, 12] was 48% and the IC50 [10] was 0.93 µM. The “inhibition of the ABL1 activity in ATP competition assay” value ([10]; 10 µM betulin, 100 µM ATP compared with 10 µM ATP) was “significantly decreased”, the “% of kinase activity that remained, ABL1” value [10, 11] was 36% and the “% of kinase activity that remained, ABL1” value [10, 12] was 21%. For the same compound, the inhibition at 10 µg/mL ([10]; read-out: inhibition of kinase activity, ABL1) was 79%.
